The structures appear in SMILES notation.

Data on 3 compounds can be found in patent publication US20080317875A1, “Inhibitor of PI3 kinase-dependent inflammatory cytokine synthesis and method for inhibiting the same” (priority 2006, published 2008).

The subject of one experiment is C. rodentium. The note with it: B10.D2 mice, vs control group.
The test system of a further experiment is IFN-γ. The settings on record: MLN cells from mice day 6 after infection, 30 mM LiCO3 in drinking water, vs control group; FIG. 8E.
The subject of experiment [1] is bone marrow-derived dendritic cells (BMDCs). The experiment is described as follows: IL-12p70 production in LPS-stimulated BMDCs after pretreatment with GSK3β inhibitor (ELISA). The note with it: BMDCs pretreated 1 hr with 10 nM SB216763 or 5 mM LiCl, then 1 μg/ml LPS for 24 hr; FIG. 7B.
Procedure: Bone marrow-derived dendritic cells (BMDCs) were isolated from wild-type mice by the method as described in Example 2. […] Meanwhile, after pretreatment for 1 hr with 10 nM GSK3β inhibitor SB216763 (Sigma) or 5 mM LiCl, the isolated BMDCs were stimulated with a 1 μg/ml LPS solution for 24 hr. The content of IL-12 in the culture supernatants after the stimulation was quantified using the ELISA kit specific to anti-mouse IL-12p70.

Procedure for C. rodentium: 200 μl of the culture (a volume equivalent to 2-3×10^8 colony-forming unit (cfu) per mouse) was infected into the mice by oral administration through the diet. Mice were sacrificed after continued housing for a designated period of time. A segment of the distal colon was excised at 4.5 cm from the rectum and the fecal pellets were removed by washing with PBS. After weight measurement and macroscopic observation of the tissue, homogenization was performed with a Potter Elvehjem homogenizer (digital homogenizer, As One). The homogenate was serially diluted with cold PBS and then seeded on MacConkey's agar plates (Difco Laboratories). The number of the colonies produced on the plate was counted to determine CFU per mouse to be used as an indicator of the degree of infection. […]
Wild-type B10.D2 mice were orally infected with C. rodentium by the method as described in Example 3. Three days after infection, the mice were divided into three groups, and one group was sacrificed and the weight of the colon cleared of lumps of feces was measured. […] Each group was housed for three more days, and six days after the infection, the mice in the experimental and control groups were sacrificed and the weight of the colon was measured. […]
Procedure for IFN-γ: The mesenteric lymph node (MLN) cells were isolated from the mesentery of the mice on day 12 of infection using a syringe needle. After cells were gently suspended, tissue fragments were removed by passing through a 100-μm mesh. Cells were then transferred to RPMI 1640 medium and culture was started at 37° C. Subsequently, the MLN cells were stimulated with bacterial lysate at 37° C. for 72 hr.
Meanwhile, MLN cells were isolated by the method as described in Example 3 from the mice 6 days after the oral infection. The isolated MLN cells were stimulated in vitro with C. rodentium lysate and IFN-γ produced was quantified by ELISA.

Turning to `O=C([O-])[O-].[Li+].[Li+]` [LiCO3, lithium carbonate], the “symptom of bacterial infection in the colon (colon weight, macroscopic and histopathological observation)” value in the experiment on C. rodentium (30 mM LiCO3 in drinking water from day 3 to day 6 after infection, FIG. 8A-C) was “relieved”. For the same compound, in the experiment on C. rodentium (30 mM LiCO3 in drinking water, day 6 after infection, p<0.05, FIG. 8D), the “number of infecting bacteria in the colon (cfu)” value is “significantly decreased”. For the same compound, the “expression level of IFN-γ in the lymph node cells” value in the experiment with IFN-γ is “decreased”. Turning to `[Cl-].[Li+]` [LiCl, lithium chloride], the “production of IL-12 (IL-12p70 in culture supernatant)” value in experiment [1] is reported as “decrease”. Take `Cn1cc(C2=C(c3ccc(Cl)cc3Cl)C(=O)NC2=O)c2ccccc21` [SB216763, reference compound]: the “production of IL-12 (IL-12p70 in culture supernatant)” value in experiment [1] was “decrease”.
